Like-named read-outs stand apart in the source and are kept apart here.
Tests used:
SARS-CoV-2 [1] = assay: Viral-RNA replication suppression in infected Caco-2 cells (qRT-PCR); settings: for EC50: Severe acute respiratory syndrome coronavirus 2, Caco-2, 48 h, read-out: SARS-CoV-2 EC50
WNV = assay: microbe, parasite or virus in culture; format: cell-based; settings: West Nile virus, 72 h; BHK-21 cells, three days, MTT
JEV = assay: microbe, parasite or virus in culture; format: cell-based; settings: Japanese encephalitis virus, 72 h; BHK-21 cells, three days, MTT
HCoV-OC43 [2] = assay: Cell-death suppression effect in coronavirus-infected cells (resazurin); settings: for EC50: read-out: HCoV-0C43 EC50 (50% cell death inhibition concentration)
HCoV-229E and HCoV-OC43 = assay: Library screening for suppression of cell death of cells infected by a human coronavirus; format: cell-based
Description: HCoV-229E (ATCC: VR-740) and HCoV-OC43 (ATCC: VR-1558) obtained from the ATCC were used as coronaviruses that routinely infect humans (human coronaviruses: HCoV).
(§1) In the following tests, culture-cell strain MRC5 cells from the lungs of a human fetus or culture-cell strain Caco-2 cells from a human colon carcinoma were infected using the viruses. For both cell types, 2% FBS/MEM was used as a culture medium. The 2% FBS/MEM was prepared by adding 2% FBS (fetal bovine serum; made by Gibco) and L-glutamine (made by Wako) to MEM (Minimum Essential Medium; made by Nissui).
HCoV-229E and HCoV-OC43 were used as the human coronavirus.

DENV1 = assay: microbe, parasite or virus in culture; format: cell-based; settings: Dengue virus, DENV1, 120 h; BHK-21 cells, five days, MTT
ZIKV = assay: microbe, parasite or virus in culture; format: cell-based; settings: Zika virus, 72 h; BHK-21 cells, three days, MTT
HCoV-229E [3] = assay: Cell-death suppression effect in coronavirus-infected cells (resazurin); settings: for EC50: read-out: HCoV-229E EC50 (50% cell death inhibition concentration)
Caco-2 cells = settings: for cytotoxicity by microscopic observation: Caco-2 cells infected with SARS-CoV-2; for concentration at which mild cytotoxicity, not to an extent of cell extinction, was observed: human
DENV4 = assay: microbe, parasite or virus in culture; format: cell-based; settings: Dengue virus, DENV4, 120 h; BHK-21 cells, five days, MTT
DENV3 = assay: microbe, parasite or virus in culture; format: cell-based; settings: Dengue virus, DENV3, 120 h; BHK-21 cells, five days, MTT
[4] = Cytotoxicity CC50 (Table 1); format: cell-based, human; settings: human, MRC5 cells
Description: as §1
(§2) Moreover, from values of EC50 and CC50, SI (CC50/EC50) was calculated.

SARS-CoV-2 [5] = assay: Time-of-addition test in infected Caco-2 cells (viral RNA, TCID50 titration); format: cell-based; settings: 1 μM, treatment timing Whole and Post-Entry
DENV2 = assay: microbe, parasite or virus in culture; format: cell-based; settings: Dengue virus, DENV2, 96 h; BHK-21 cells, four days, MTT
HCoV-229E [6] = test system: HCoV-229E
HCoV-OC43 [7] = test system: HCoV-OC43
YFV [8] = assay: microbe, parasite or virus in culture; format: cell-based; settings: Yellow fever virus, BHK-21, 72 h, read-out: EC50 YFV
MRC5 cells = assay: Cytotoxicity CC50 (Table 1); format: cell-based, human
Description: as §1, §2

YFV [9] = settings: non-patent literature 5; read-out: antiviral activity (EC50) against YFV; cited from earlier work

With `Nc1c2ccn([C@@H]3O[C@H](CO)[C@@H](O)[C@H]3O)c2nc[n+]1[O-]` [HUP1077, tubercidin N-oxide] the EC50 (SARS-CoV-2 [1]) was 3.5 µM, the EC50 (WNV) was 10.7 µM and the EC50 (JEV) was 6.9 µM. The “HCoV-0C43 SI (CC50/EC50)” value (HCoV-OC43 [2]) was 5.6, the “antiviral activity (suppressing cell death of infected cells) in library screening” value (“antiviral activity” below) (HCoV-229E and HCoV-OC43; HCoV-229E and HCoV-OC43) was “had antiviral activity” and the EC50 (DENV1) was 3.2 µM. The EC50 (ZIKV) was 6.3 µM, the “HCoV-229E SI (CC50/EC50)” value (HCoV-229E [3]) was 6.1 and the EC50 (HCoV-229E [3]; Human coronavirus 229E, 72 h) was 4 µM. For the same molecule, the “cytotoxicity by microscopic observation” value (Caco-2 cells) was “concerns regarding cytotoxicity were low”, the EC50 (DENV4) was 2.5 µM and the EC50 (DENV3) was 2.3 µM.
In the case of `Nc1ncnc2c1c(CO)cn2[C@@H]1O[C@H](CO)[C@@H](O)[C@H]1O` [HUP1108, 5-hydroxymethyltubercidin], the “concentration range in which virus proliferation was suppressed without cytotoxicity” value (SARS-CoV-2 [1]; Caco-2 cells) is reported as “lower than 3.33 μM”, the EC50 (SARS-CoV-2 [1]) is reported as 0.57 µM and the “HCoV-0C43 SI (CC50/EC50)” value (HCoV-OC43 [2]) is reported as over 141. The EC50 (HCoV-OC43 [2]; Betacoronavirus 1, OC43, 72 h) was 0.35 µM, the “antiviral activity” value (HCoV-229E and HCoV-OC43; HCoV-229E and HCoV-OC43) was “had antiviral activity” and the CC50 [4] was over 50 µM. The “relative viral-RNA amount” value (SARS-CoV-2 [5]; Caco-2 cells, 24 hours, FIG. 3) was “reduced”, the “viral titer (TCID50)” value (SARS-CoV-2 [5]; supernatant titrated on VeroE6/TMPRSS2 cells, FIG. 4) was “reduced” and the “HCoV-229E SI (CC50/EC50)” value (HCoV-229E [3]) was over 117. The “cytotoxicity by microscopic observation” value (Caco-2 cells) was “concerns regarding cytotoxicity were low” and the “concentration at which mild cytotoxicity, not to an extent of cell extinction, was observed” value (Caco-2 cells) was 10000 nM.
In the case of `Nc1ncnc2c1c([N+](=O)[O-])cn2[C@@H]1O[C@H](CO)[C@@H](O)[C@H]1O` [HUP1078, 5-nitrotubercidin], the EC50 (SARS-CoV-2 [1]) is reported as 0.1 µM, the EC50 (HCoV-OC43 [2]; Betacoronavirus 1, OC43, 72 h) is reported as over 10 µM and the “antiviral activity” value (HCoV-229E and HCoV-OC43; HCoV-229E and HCoV-OC43) is reported as “had antiviral activity”. For the same molecule, the CC50 [4] was 0.33 µM, the “HCoV-229E SI (CC50/EC50)” value (HCoV-229E [3]) was 0.17 and the EC50 (HCoV-229E [3]; Human coronavirus 229E, 72 h) was 2 µM. The “concentration at which mild cytotoxicity, not to an extent of cell extinction, was observed” value (Caco-2 cells) was at least 123 nM and the EC50 (DENV2) was over 20 µM.
In the case of `Nc1ncnc2c1c(/C=N\O)cn2[C@@H]1O[C@H](CO)[C@@H](O)[C@H]1O` [HUP1069, 5-formyltubercidin oxime], the “HCoV-229E SI (CC50/EC50)” value (HCoV-229E [6]) is reported as over 9.5, the EC50 (SARS-CoV-2 [1]) is reported as 0.2 µM and the EC50 (WNV) is reported as under 0.13 µM. The EC50 (JEV) was under 0.13 µM, the EC50 (HCoV-OC43 [2]; Betacoronavirus 1, OC43, 72 h) was 0.055 µM and the “antiviral activity” value (HCoV-229E and HCoV-OC43) was “had antiviral activity”. The “HCoV-0C43 SI (CC50/EC50)” value (HCoV-OC43 [7]) was 13, the EC50 (DENV1) was over 16 µM and the EC50 (HCoV-229E [3]; Human coronavirus 229E, 72 h) was under 0.078 µM. It also gave an EC50 (DENV4) of over 16 µM, an EC50 (DENV3) of over 16 µM and an EC50 (DENV2) of under 0.125 µM.
With `Nc1ncnc2c1ccn2[C@@H]1O[C@H](CO)[C@@H](O)[C@H]1O` [HUP1136, tubercidin] the “HCoV-229E SI (CC50/EC50)” value (HCoV-229E [6]) was over 8.5, the EC50 (SARS-CoV-2 [1]) was 0.087 µM and the EC50 (WNV) was 0.2 µM. For the same molecule, the EC50 (JEV) was under 0.13 µM, the “antiviral activity” value (HCoV-229E and HCoV-OC43) was “had antiviral activity” and the “HCoV-0C43 SI (CC50/EC50)” value (HCoV-OC43 [7]) was 5.9. It also gave an EC50 (YFV [8]) of 0.15 µM, an EC50 (DENV1) of over 16 µM and an EC50 (HCoV-229E [3]; Human coronavirus 229E, 72 h) of under 0.078 µM. The “concentration at which mild cytotoxicity, not to an extent of cell extinction, was observed” value (Caco-2 cells) was at least 1110 nM, the EC50 (DENV4) was over 16 µM and the EC50 (DENV3) was under 0.125 µM.
In the case of `N#C[C@@]1(c2ccc3c(N)ncnn23)O[C@H](CO)[C@@H](O)[C@H]1O` [GS-441524, reference compound], the EC50 (HCoV-OC43 [2]; cultured three days, resazurin) is given as 3.7 µM, the CC50 (MRC5 cells) is given as over 50 µM and the EC50 (YFV [9]) is given as 11 µM. It also gave an EC50 (HCoV-229E [3]; cultured three days, resazurin) of 3.1 µM.
In the case of `N#Cc1cn([C@@H]2O[C@H](CO)[C@@H](O)[C@H]2O)c2ncnc(N)c12` [HUP1109, 5-cyanotubercidin], the “HCoV-229E SI (CC50/EC50)” value (HCoV-229E [6]) is reported as 0.26, the EC50 (SARS-CoV-2 [1]) is reported as 0.2 µM and the EC50 (HCoV-OC43 [2]; Betacoronavirus 1, OC43, 72 h) is reported as over 10 µM. For the same molecule, the “antiviral activity” value (HCoV-229E and HCoV-OC43) was “had antiviral activity”, the CC50 [4] was 0.59 µM and the EC50 (HCoV-229E [3]; Human coronavirus 229E, 72 h) was 2.3 µM. For the same molecule, the “cytotoxicity by microscopic observation” value (Caco-2 cells) was “strong cytotoxicity” and the EC50 (DENV2) was over 20 µM.
With `CCC(CC)COC(=O)[C@H](C)N[P@](=O)(OC[C@H]1O[C@@](C#N)(c2ccc3c(N)ncnn23)[C@H](O)[C@@H]1O)Oc1ccccc1` [GS-5734, remdesivir, reference compound] the “HCoV-229E SI (CC50/EC50)” value (HCoV-229E [6]) was over 694.1, the EC50 (HCoV-OC43 [2]; Betacoronavirus 1, OC43, 72 h) was 0.23 µM and the “HCoV-0C43 SI (CC50/EC50)” value (HCoV-OC43 [7]) was over 221.1. It also gave a CC50 ([4]; read-out: CC50) of over 50 µM and an EC50 (HCoV-229E [3]; Human coronavirus 229E, 72 h) of 0.072 µM.

— US20240131046A1, “ANTI-VIRAL AGENT” (NATIONAL UNIVERSITY CORPORATION HOKKAIDO UNIVERSITY, priority 2021, published 2024)
